Results from PubChem BioAssay (NCI).
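Compound exposure: 48 hours, 5 concentrations, 96-well plates. TGI is the concentration that stops growth completely.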 *1 amine or outer side, *2 acyl side, *3 side chain or, on linkers, in order; H or OH if unused. Where a SMILES comes first, the peptide text is derived from it. Bridges are numbered along the chain shown (N, C = ends). Roman numbers before positions name the chains, in order. [ ]: non-standard residue; d: D form. Actinocin(9to1) = Cc1c2oc3c(C)ccc(C(=O)[*:1])c3nc-2c(C(=O)[*:2])c(N)c1=O; NMeH = CN[CH](Cc1c[nH]cn1)C(=O)O; Sar = CNCC(=O)O

How the values were obtained:
Assay in all cases: NCI-60 cell line screen, 48 h
BT-549 breast = tested on: BT-549 breast
HL-60(TB) leukemia = tested on: HL-60(TB) leukemia
HOP-92 NSCLC = tested on: HOP-92 NSCLC
HS 578T breast = tested on: HS 578T breast
MCF7 breast = tested on: MCF7 breast
MOLT-4 leukemia = tested on: MOLT-4 leukemia
NCI-H460 lung = tested on: NCI-H460 lung
RPMI-8226 leukemia = tested on: RPMI-8226 leukemia
SK-MEL-5 melanoma = tested on: SK-MEL-5 melanoma
SNB-19 CNS = tested on: SNB-19 CNS
UACC-62 melanoma = tested on: UACC-62 melanoma

C1=NCCNCCNCCN=Cc2ccc(cc2)OCc2cccc(n2)COc2ccc1cc2
TGI (BT-549 breast): > 100 µM | TGI (HL-60(TB) leukemia): > 100 µM | TGI (HOP-92 NSCLC): > 100 µM | TGI (HS 578T breast): > 100 µM | TGI (MCF7 breast): > 100 µM | TGI (MOLT-4 leukemia): > 100 µM | TGI (NCI-H460 lung): > 100 µM | TGI (RPMI-8226 leukemia): > 100 µM | TGI (SK-MEL-5 melanoma): > 100 µM | TGI (SNB-19 CNS): > 100 µM | TGI (UACC-62 melanoma): > 100 µM

Cc1ccc(S(=O)(=O)NC(CCC(=O)NNc2ccccc2)C(=O)NNc2ccccc2)cc1 (centres undefined)
TGI (BT-549 breast): > 100 µM | TGI (HL-60(TB) leukemia): > 100 µM | TGI (HOP-92 NSCLC): > 100 µM | TGI (HS 578T breast): > 100 µM | TGI (MCF7 breast): > 100 µM | TGI (MOLT-4 leukemia): > 100 µM | TGI (NCI-H460 lung): 51.6 µM | TGI (RPMI-8226 leukemia): > 100 µM | TGI (SK-MEL-5 melanoma): > 100 µM | TGI (SNB-19 CNS): > 100 µM | TGI (UACC-62 melanoma): > 100 µM

CCCCc1ccc(Nc2ncc3ncn(COCCO)c3n2)cc1
TGI (BT-549 breast): > 100 µM | TGI (HL-60(TB) leukemia): 50 µM | TGI (HOP-92 NSCLC): 92.8 µM | TGI (HS 578T breast): 83.7 µM | TGI (MCF7 breast): > 100 µM | TGI (MOLT-4 leukemia): 53.1 µM | TGI (NCI-H460 lung): 57.9 µM | TGI (RPMI-8226 leukemia): 50 µM | TGI (SK-MEL-5 melanoma): 49.6 µM | TGI (SNB-19 CNS): > 100 µM | TGI (UACC-62 melanoma): 77.7 µM

CC1CC[C@@]2(OC1)O[C@H]1[C@H](O)[C@H]3[C@@H]4CC[C@H]5C[C@@H](OC6OC(CO)C(OC7OC(CO)C(O)C(OC8OCC(O)C(O)C8O)C7OC7OC(CO)C(O)C(O)C7OC7OC(CO)C(O)C(O)C7O)C(O)C6O)[C@H](O)C[C@]5(C)[C@H]4CC[C@]3(C)[C@H]1[C@@H]2C (some centres undefined)
TGI (BT-549 breast): > 10 µM | TGI (HL-60(TB) leukemia): 3.08 µM | TGI (HOP-92 NSCLC): > 10 µM | TGI (HS 578T breast): > 10 µM | TGI (MCF7 breast): 7.71 µM | TGI (MOLT-4 leukemia): 1.19 µM | TGI (NCI-H460 lung): > 10 µM | TGI (RPMI-8226 leukemia): 5.14 µM | TGI (SK-MEL-5 melanoma): > 10 µM | TGI (SNB-19 CNS): > 10 µM | TGI (UACC-62 melanoma): > 10 µM

N#CC1(C#N)C(C#N)(C#N)C1(C#N)C(N)=O
TGI (BT-549 breast): > 100 µM | TGI (HL-60(TB) leukemia): > 100 µM | TGI (HOP-92 NSCLC): > 100 µM | TGI (HS 578T breast): > 100 µM | TGI (MCF7 breast): > 100 µM | TGI (MOLT-4 leukemia): > 100 µM | TGI (NCI-H460 lung): > 100 µM | TGI (RPMI-8226 leukemia): > 100 µM | TGI (SK-MEL-5 melanoma): > 100 µM | TGI (SNB-19 CNS): > 100 µM | TGI (UACC-62 melanoma): > 100 µM

O=C1CCCNn2c(nc3ncccc3c2=O)N1
TGI (BT-549 breast): > 100 µM | TGI (HL-60(TB) leukemia): > 100 µM | TGI (HOP-92 NSCLC): > 100 µM | TGI (HS 578T breast): > 100 µM | TGI (MCF7 breast): > 100 µM | TGI (MOLT-4 leukemia): > 100 µM | TGI (NCI-H460 lung): > 100 µM | TGI (RPMI-8226 leukemia): > 100 µM | TGI (SK-MEL-5 melanoma): > 100 µM | TGI (SNB-19 CNS): > 100 µM | TGI (UACC-62 melanoma): > 100 µM

C=C(C(=O)O[C@H]1C/C(C)=C/CC/C(CO)=C/[C@H]2C(=O)OC(=C)[C@H]12)C(O)CO (some centres undefined)
TGI (BT-549 breast): 30.2 µM | TGI (HL-60(TB) leukemia): 10.4 µM | TGI (HOP-92 NSCLC): 31.4 µM | TGI (HS 578T breast): 57.9 µM | TGI (MCF7 breast): 25.6 µM | TGI (MOLT-4 leukemia): 13.2 µM | TGI (NCI-H460 lung): 31.6 µM | TGI (RPMI-8226 leukemia): 4.95 µM | TGI (SK-MEL-5 melanoma): 29.1 µM | TGI (SNB-19 CNS): 43.3 µM | TGI (UACC-62 melanoma): 31.5 µM

Cc1c2oc3c(C)ccc(C(=O)NC4C(=O)NC(C(C)C)C(=O)N5CCCC5C(=O)N(C)CC(=O)N(C)C(Cc5cnc[nH]5)C(=O)OC4C)c3nc-2c(C(=O)NC2C(=O)NC(C(C)C)C(=O)N3CCCC3C(=O)N(C)CC(=O)N(C)C(Cc3cnc[nH]3)C(=O)OC2C)c(N)c1=O (centres undefined) (I: TVP[Sar][NMeH] / II: TVP[Sar][NMeH]; ester I:1-I:C, II:1-II:C; linker I:N-II:N via Actinocin(9to1); configuration not given here)
TGI (BT-549 breast): > 100 µM | TGI (HL-60(TB) leukemia): > 100 µM | TGI (HOP-92 NSCLC): > 100 µM | TGI (HS 578T breast): > 100 µM | TGI (MCF7 breast): > 100 µM | TGI (MOLT-4 leukemia): > 100 µM | TGI (NCI-H460 lung): > 100 µM | TGI (RPMI-8226 leukemia): > 100 µM | TGI (SK-MEL-5 melanoma): 55.9 µM | TGI (SNB-19 CNS): > 100 µM | TGI (UACC-62 melanoma): > 100 µM

N#Cc1c(-c2ccc(Cl)cc2)cc(-c2ccc(Nc3ccnc4cc(Cl)ccc34)cc2)[nH]c1=O
TGI (BT-549 breast): 54.2 µM | TGI (HL-60(TB) leukemia): > 100 µM | TGI (HOP-92 NSCLC): 61.2 µM | TGI (HS 578T breast): 62.4 µM | TGI (MCF7 breast): > 100 µM | TGI (MOLT-4 leukemia): > 100 µM | TGI (NCI-H460 lung): > 100 µM | TGI (RPMI-8226 leukemia): > 100 µM | TGI (SK-MEL-5 melanoma): > 100 µM | TGI (SNB-19 CNS): > 96.7 µM | TGI (UACC-62 melanoma): > 100 µM
